# From PMC8544188 (Molecular Diversity, 2021)
# “Also recorded” adds a separate entry of the source.
# Key:
# [1] = target: T1, α-glucosidase (Saccharomyces cerevisiae, UniProt P53341); experiment: Enzyme kinetic studies; type: biochemical; settings: Lineweaver–Burk plot: Km increased, Vmax unchanged
# [2] = target: T1, α-glucosidase; experiment: α-glucosidase inhibition assay; type: biochemical
# T1 sequence (P53341 whole entry): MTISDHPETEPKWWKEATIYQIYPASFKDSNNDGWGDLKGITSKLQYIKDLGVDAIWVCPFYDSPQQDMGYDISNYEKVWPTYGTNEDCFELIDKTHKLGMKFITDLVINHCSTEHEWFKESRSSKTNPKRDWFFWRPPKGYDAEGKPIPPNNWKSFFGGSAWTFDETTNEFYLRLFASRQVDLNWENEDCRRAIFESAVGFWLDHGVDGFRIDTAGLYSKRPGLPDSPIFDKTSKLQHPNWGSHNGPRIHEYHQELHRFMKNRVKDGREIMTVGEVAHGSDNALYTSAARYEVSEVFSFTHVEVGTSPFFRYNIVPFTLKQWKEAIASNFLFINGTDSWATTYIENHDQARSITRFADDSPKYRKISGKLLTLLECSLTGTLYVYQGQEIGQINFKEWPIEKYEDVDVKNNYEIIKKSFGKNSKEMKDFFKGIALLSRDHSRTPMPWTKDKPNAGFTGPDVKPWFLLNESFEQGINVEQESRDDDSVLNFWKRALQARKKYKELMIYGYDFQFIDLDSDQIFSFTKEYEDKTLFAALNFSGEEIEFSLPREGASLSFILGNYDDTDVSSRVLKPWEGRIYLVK
structure (smiles),measurement,setting,value
"COc1ccc(-c2[nH]c3c(c2CC#N)c(=O)oc2ccccc23)cc1 [5e, 2-(2-(4-methoxyphenyl)-4-oxo-1,4-dihydrochromeno[4,3-b]pyrrol-3-yl)acetonitrile]",mode of inhibition,[1],competitive inhibition; also recorded: competitive inhibitor
"N#CCc1c(-c2ccc(Cl)cc2)[nH]c2c1c(=O)oc1ccccc12 [5d, 2-(2-(4-chlorophenyl)-4-oxo-1,4-dihydrochromeno[4,3-b]pyrrol-3-yl)acetonitrile]",fold increase in potency compared to 5a,[2]; ratio of IC50 values versus 5a,around fivefold
"N#CCc1c(-c2ccccc2)[nH]c2c1c(=O)oc1ccc(Cl)cc12 [5b, 2-(8-chloro-4-oxo-2-phenyl-1,4-dihydrochromeno[4,3-b]pyrrol-3-yl)acetonitrile]",α-glucosidase inhibitory activity in words,[2],diminished the inhibitory activity completely
"N#CC(C(N)=O)c1c(-c2ccccc2)[nH]c2c1c(=O)oc1ccccc12 (stereo not shown) [4a, 2-cyano-2-(4-oxo-2-phenyl-1,4-dihydrochromeno[4,3-b]pyrrol-3-yl)acetamide]",fold improvement in inhibitory potency compared to acarbose (positive control),[2]; ratio of IC50 values versus acarbose,around fivefold
